Test results reported in patent US20220312815A1, “NATURAL FOOD ANTIOXIDANT AND METHOD FOR PREPARING THE SAME” (Lanzhou Universty, priority 2019, published 2022).
Marks after values point to notes of the source that are not given here.

Experiments:
[1] = Antioxidative activity of superoxide anions (PMS-NADH-NBT system method); type: biochemical; settings: absorbance at 560 nm after 5 min, pH7.4 phosphate buffer
Excerpt: The determination of antioxidative activity of superoxide anions: O2-• was a free radicals with a longer life in a body. In free radical chain reaction. O2-• acted as an initiator to promote the generation of other free radicals, causing further harm to the body, which was closely related to many diseases. Therefore, the ability of the sample to remove O2-• was usually used as an important indicator of the activity of an antioxidative substance. Flavonoid and a sample of flavonoid and polysaccharide mixed that was prepared in Embodiment 1 were all prepared with 70% ethyl alcohol. A polysaccharide sample, positive control vitamin C (Vc) and vitamin E (Ve) were prepared with distilled water. 1.280 mg/mL stock solution was prepared with each substance to be tested and then diluted for 7 concentration gradients for later use. A PMS-NADH-NBT system method was used to determine the activity of scavenging superoxide anions (O2-•). […] When being added to the PMS-NADH-NBT system, an antioxidative substance inhibited the reaction of O2-• with NBT. By measuring absorbency, the ability to scavenge free radicals of antioxidant could be calculated. […] A light absorption value of the solution was measured at 560 nm after 5 min. […]

[2] = Antioxidative activity of DPPH (DPPH free radical scavenging); type: biochemical; settings: absorbance at 519 nm after 30 minutes in dark at room temperature; mean of 3 repeats
Description: Antioxidative activity of DPPH: DPPH belonged to a synthetic stable free radical, which has characteristic absorption in a visible light region. A method for measuring DPPH was simple and fast and had good reproducibility. Flavonoid and a sample of flavonoid and polysaccharide mixed that was prepared in Embodiment 1 were all prepared with 70% ethyl alcohol. The polysaccharide sample, positive control vitamin C (Vc) and vitamin E (Ve) were prepared with distilled water. 1.280 mg/mL stock solution was prepared with each substance to be tested and diluted for 7 concentration gradients for later use. 75 μL of a solution in each concentration to be tested was precisely added to a 96-ferment plate, and then added with 150 μL of 0.1 m MDPPH 70% ethyl alcohol solution. A blank control was set for each reaction hole of each concentration. The blank control was 75 μL of the solution to be tested and 150 μL of 70% ethyl alcohol. The total volume of reaction was 225 μL. The solution was shook well, and kept standing in dark at room temperature for 30 minutes. […] A decrease in absorbency indicated an increase in free radical scavenging activity. Each sample was repeated 3 times for each concentration. Scavenging rate=[A0-(A1-A2)]/A0 A0 was a light absorption value of the DPPH solution plus a solution to be tested at a concentration of zero. […]

IC50 of O2-· [1] | IC50 of DPPH [2] | Compound
353.33 ± 4.16^e μg/mL | 5.33 ± 0.45^a μg/mL | Cc1c(C)c2c(c(C)c1O)CC[C@@](C)(CCC[C@H](C)CCC[C@H](C)CCCC(C)C)O2 [Ve, vitamin E]
208.83 ± 10.41^d μg/mL | 2.95 ± 0.39^a μg/mL | O=C1O[C@H]([C@@H](O)CO)C(O)=C1O [Vc, vitamin C]
